Key:
Assay type in all cases: cell-based, Staphylococcus epidermidis
S. epidermidis [1] = assay: Colony count (colony formation) assay; conditions: 100 μl stock solution, 24 h at 37° C.
Procedure: Using S. epidermidis broth (McFarland 0.5 standard), 100 μl was placed in the center of the agar plate. 100 μl of the respective antibacterial stock solution is added to the center. Bacteria was spread through the Petri dish and the plates were further incubated for 24 h at 37° C. Pictures of the plates were uploaded onto the OpenCFU software to count the number of colonies grown on the plate. Two plates were prepared for each antibacterial treatment with corresponding controls.

S. epidermidis [2] = assay: Turbidity assay (absorption at 600 nm); conditions: serial dilution, 24 h at 37° C.
Procedure: A serial dilution (using the factor of 2) of antibacterial solutions was conducted in 12-well plates starting with 200 μL of antibacterial solution was placed in first well. 850 μl of broth and 50 μl of bacterial broth were added to each well plate. The concentrations tested for doxycycline were 1, 0.5, 0.25, 0.125 and 0 mg/mL. The concentrations tested for methicillin are 1.25, 0.625,0.313, […] and 0 mg/mL. Plates were that incubated at 37° C. for 24 h. The solutions were transferred to cuvettes, and their turbidity is measured using a Cary 500 spectrophotometer with the broth used as a baseline. Two wells were prepared for each concentration.

S. epidermidis [3] = assay: Disk diffusion (zone inhibition) assay; conditions: 2 and 4 mg doses; compared to non-treatment control; 24 h at 37° C.
Procedure: S. epidermidis broth of McFarland 0.5 standard (absorption of 0.08 to 0.1) was created using Mueller Hilton Broth. This standard stabilized the cell count at an approximate 1×10^8 CFU/mL Dilution was plated within 15 minutes of standardization. Following the proper aseptic techniques, 0.2 mL of bacterial broth was placed in the center of prepared agar dish. A sterile bacteria spreader was used to evenly spread the bacteria throughout the plate to create a lawn.
Two different dosages of the antibacterial solutions were tested to increase the breadth and reliability of data. […] Petri dishes are incubated for 24 h at 37° C., then the zones of inhibition were measured with the inclusion of disk diameter in the measurements.
The statistical analysis performed in this work confirm the significance of the observed results for diffusion discs performed at different amounts of SWCNT/antibiotic complex loaded onto discs. […] When the p-value of the analysis is lower than the confidence level chosen, the hypothesis is proven false and a significant difference and variation is detected.
The dataset is analyzed using a comparison of means function by assigning a mean of the control group and comparing it to the means of each of the treatment groups. […]

COc1cccc(OC)c1C(=O)N[C@@H]1C(=O)N2[C@@H]1SC(C)(C)[C@@H]2C(=O)O [methicillin]
colony count (in words) (S. epidermidis [1]): complete lack of inhibition response
turbidity of bacterial media (absorption at 600 nm) (S. epidermidis [2]): some bacterial inhibition
antibacterial effect (zone of inhibition) of antibiotic alone (S. epidermidis [3]): no antibiotic activity

— patent US10898434B2, “Single-walled carbon nanotube-assisted antibiotic delivery and imaging techniques” (Texas Christian University, priority 2018, dated 2021)
